According to ChEMBL document CHEMBL5236590, “Discovery of Novel N-(5-(Pyridin-3-yl)-1H-indazol-3-yl)benzamide Derivatives as Potent Cyclin-Dependent Kinase 7 Inhibitors for the Treatment of Autosomal Dominant Polycystic Kidney Disease” (J Med Chem, 2022):
Activity calls are given as the source filed them. No cut-off for these calls is given here.

Columns and labels:
[1] = Half life in ICR mouse at 5 mg/kg, sc single dose measured upto 24 hrs; format: ADME, organism-based; conditions: in vivo
[2] = molecular target: Serine/threonine-protein kinase 17A (Homo sapiens) (UniProt Q9UEE5); assay: Inhibition of human partial length wild type DRAK1 expressed in bacterial system at 1 uM by KINOMEscan analysis relative to control
Chain of Serine/threonine-protein kinase 17A (Homo sapiens) (Q9UEE5 whole entry, canonical isoform): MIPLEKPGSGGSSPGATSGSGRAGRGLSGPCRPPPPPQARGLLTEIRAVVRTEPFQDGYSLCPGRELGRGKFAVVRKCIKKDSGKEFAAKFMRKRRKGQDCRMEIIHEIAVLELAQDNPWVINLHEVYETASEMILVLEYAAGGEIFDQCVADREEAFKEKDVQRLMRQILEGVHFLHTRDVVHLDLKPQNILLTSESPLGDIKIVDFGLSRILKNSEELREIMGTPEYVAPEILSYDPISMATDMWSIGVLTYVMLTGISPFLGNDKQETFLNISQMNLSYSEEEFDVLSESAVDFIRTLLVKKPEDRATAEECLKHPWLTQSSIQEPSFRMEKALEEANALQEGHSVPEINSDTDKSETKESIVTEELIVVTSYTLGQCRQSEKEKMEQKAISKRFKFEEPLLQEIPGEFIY

[3] = molecular target: Casein kinase I isoform gamma-1 (Homo sapiens) (UniProt Q9HCP0); assay: Inhibition of human partial length wild type CKlgamma1 (T15/S353) expressed in bacterial system at 1 uM by KINOMEscan analysis relative to control
Chain of Casein kinase I isoform gamma-1 (Homo sapiens) (Q9HCP0 whole entry, looked up, canonical isoform): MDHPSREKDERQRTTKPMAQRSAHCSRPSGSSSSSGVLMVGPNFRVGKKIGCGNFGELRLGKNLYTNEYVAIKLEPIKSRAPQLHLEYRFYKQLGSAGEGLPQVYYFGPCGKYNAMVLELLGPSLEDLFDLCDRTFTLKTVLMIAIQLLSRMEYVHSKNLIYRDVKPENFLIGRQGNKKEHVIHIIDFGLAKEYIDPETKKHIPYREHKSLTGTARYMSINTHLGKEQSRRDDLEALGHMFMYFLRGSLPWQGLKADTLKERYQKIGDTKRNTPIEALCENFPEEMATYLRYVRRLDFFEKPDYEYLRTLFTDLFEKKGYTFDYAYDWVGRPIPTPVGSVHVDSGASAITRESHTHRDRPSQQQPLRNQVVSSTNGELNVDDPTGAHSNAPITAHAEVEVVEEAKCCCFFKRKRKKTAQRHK

[4] = Observed MRT (infinitive) in ICR mouse at 5 mg/kg, iv single dose measured upto 24 hrs; format: ADME, organism-based; conditions: in vivo
[5] = molecular target: Cyclin-dependent kinase 1 (Homo sapiens, UniProt P06493); assay: Inhibition of CDK1 (unknown origin)
[6] = molecular target: Eukaryotic elongation factor 2 kinase (Homo sapiens) (UniProt O00418); assay: Inhibition of human recombinant eEF-2K at 1 uM by radiometric assay relative to control
[7] = molecular target: 5'-AMP-activated protein kinase catalytic subunit alpha-1 (Homo sapiens) (UniProt Q13131); assay: Inhibition of human partial length AMPKalphal (M1/E306) expressed in bacterial system at 1 uM by KINOMEscan analysis relative to control
[8] = molecular target: PI3-kinase p110-alpha/p85-alpha (Homo sapiens) (UniProt P27986+P42336); assay: Inhibition of PI3 kinase p110alpha/p85alpha (unknown origin) at 1 uM relative to control; format: protein-complex assay
[9] = molecular target: Serine/threonine-protein kinase Nek2 (Homo sapiens) (UniProt P51955); assay: Inhibition of human partial length wild type NEK2 expressed in bacterial system at 1 uM by KINOMEscan analysis relative to control
[10] = Observed AUC (infinitive) in ICR mouse at 5 mg/kg, sc single dose measured upto 24 hrs; format: ADME, organism-based; set-up: time < 24 hrs, dose 5 mg/kg, route sc; conditions: in vivo
[11] = Cmax in ICR mouse at 5 mg/kg, sc single dose measured upto 24 hrs; format: ADME, organism-based; set-up: time < 24 hrs, dose 5 mg/kg, route sc; conditions: in vivo
[12] = molecular target: Ephrin type-B receptor 4 (Homo sapiens) (UniProt P54760); assay: Inhibition of human partial length wild type EphB4 (H585/G892) expressed in bacterial system at 1 uM by KINOMEscan analysis relative to control
Chain of Ephrin type-B receptor 4 (Homo sapiens) (P54760 whole entry): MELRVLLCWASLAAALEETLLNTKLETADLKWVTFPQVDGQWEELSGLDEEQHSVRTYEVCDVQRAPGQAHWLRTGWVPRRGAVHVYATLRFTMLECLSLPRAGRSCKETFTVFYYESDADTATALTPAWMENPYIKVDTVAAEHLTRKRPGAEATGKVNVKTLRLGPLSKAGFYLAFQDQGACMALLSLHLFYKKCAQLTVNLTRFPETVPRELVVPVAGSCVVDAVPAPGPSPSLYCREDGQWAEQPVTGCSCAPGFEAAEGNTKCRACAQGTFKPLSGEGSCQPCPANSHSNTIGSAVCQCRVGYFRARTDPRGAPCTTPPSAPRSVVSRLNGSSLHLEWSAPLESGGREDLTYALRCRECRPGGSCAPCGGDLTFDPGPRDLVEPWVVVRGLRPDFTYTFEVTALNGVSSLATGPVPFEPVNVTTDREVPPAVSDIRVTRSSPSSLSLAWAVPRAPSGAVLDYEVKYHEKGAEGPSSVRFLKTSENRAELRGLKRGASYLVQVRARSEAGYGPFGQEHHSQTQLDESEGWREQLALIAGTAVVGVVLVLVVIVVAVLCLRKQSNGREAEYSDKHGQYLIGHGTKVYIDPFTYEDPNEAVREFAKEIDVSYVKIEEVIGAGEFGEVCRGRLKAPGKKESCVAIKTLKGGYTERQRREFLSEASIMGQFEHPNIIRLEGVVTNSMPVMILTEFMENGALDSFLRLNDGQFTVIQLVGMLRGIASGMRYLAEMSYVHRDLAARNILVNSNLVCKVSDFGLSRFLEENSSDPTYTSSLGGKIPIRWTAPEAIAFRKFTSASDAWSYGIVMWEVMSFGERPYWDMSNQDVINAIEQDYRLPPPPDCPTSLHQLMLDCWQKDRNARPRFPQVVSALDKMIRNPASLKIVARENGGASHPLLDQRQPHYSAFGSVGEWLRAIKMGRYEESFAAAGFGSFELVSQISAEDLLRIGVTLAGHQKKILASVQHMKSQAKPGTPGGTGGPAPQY

Mus musculus [13] = assay: Reduction in kidney size in kidney-specific Pkd1 knockout ADPKD mouse model assessed as renal cystic index at 5 mg/kg by HE staining analysis (reference value: 23 +/- 1.3%); format: functional, organism-based
[14] = system: Epidermal growth factor receptor (Homo sapiens), P00533 [UNDEFINED MUTATION]; assay: Inhibition of human partial length EGFR (R669/V1011) G719C mutant expressed in bacterial system at 1 uM by KINOMEscan analysis relative to control
Mus musculus [15] = assay: Reduction in cyst formation in kidney-specific Pkd1 knockout ADPKD mouse model assessed as renal cystic index at 5 mg/kg by HE staining analysis; format: functional, organism-based
[16] = Observed MRT (infinitive) in ICR mouse at 5 mg/kg, sc single dose measured upto 24 hrs; format: ADME, organism-based; conditions: in vivo
[17] = Plasma protein binding in mouse measured after 4 hrs by LC-MS/MS analysis; format: ADME, cell-free; conditions: read-out: PPB
[18] = Toxicity in wild type mouse assessed as kidney size at 5 mg/kg; format: organism-based; conditions: in vivo
[19] = molecular target: Calcium/calmodulin-dependent protein kinase type 1 (Homo sapiens) (UniProt Q14012); assay: Inhibition of human partial length wild type CaMKI expressed in bacterial system at 1 uM by KINOMEscan analysis relative to control
[20] = AUClast in ICR mouse at 5 mg/kg, iv single dose measured upto 24 hrs; format: ADME, organism-based; set-up: dose 5 mg/kg, time < 24 hrs, route iv; conditions: in vivo
[21] = molecular target: MAP kinase-interacting serine/threonine-protein kinase 2 (Homo sapiens) (UniProt Q9HBH9); assay: Inhibition of human partial length wild type Mnk2 (G63/S388) expressed in mammalian system at 1 uM by KINOMEscan analysis relative to control
[22] = molecular target: ALK tyrosine kinase receptor (Homo sapiens) (UniProt Q9UM73); assay: Inhibition of human partial length ALK (I1088/E1409) expressed in mammalian system at 1 uM by KINOMEscan analysis relative to control
[23] = molecular target: Cyclin-dependent kinase 5 (Homo sapiens, UniProt Q00535); assay: Inhibition of CDK5 (unknown origin)
[24] = molecular target: Dual specificity mitogen-activated protein kinase kinase 1 (Homo sapiens) (UniProt Q02750); assay: Inhibition of human full length wild type MEK1 expressed in mammalian system at 1 uM by KINOMEscan analysis relative to control
Chain of Dual specificity mitogen-activated protein kinase kinase 1 (Homo sapiens) (Q02750 whole entry): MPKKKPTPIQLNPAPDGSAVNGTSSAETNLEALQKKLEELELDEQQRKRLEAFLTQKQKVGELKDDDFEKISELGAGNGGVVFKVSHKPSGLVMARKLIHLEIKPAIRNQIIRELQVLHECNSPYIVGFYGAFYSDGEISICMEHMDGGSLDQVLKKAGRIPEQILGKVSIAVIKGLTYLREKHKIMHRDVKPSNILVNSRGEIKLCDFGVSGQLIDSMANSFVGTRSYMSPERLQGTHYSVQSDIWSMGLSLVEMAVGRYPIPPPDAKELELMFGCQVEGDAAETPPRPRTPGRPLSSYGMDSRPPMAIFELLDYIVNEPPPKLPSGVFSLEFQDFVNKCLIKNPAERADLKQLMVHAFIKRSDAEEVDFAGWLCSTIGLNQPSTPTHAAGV

[25] = molecular target: Ribosomal protein S6 kinase alpha-4 (Homo sapiens) (UniProt O75676); assay: Inhibition of human partial length wild type MSK2 expressed in bacterial system at 1 uM by KINOMEscan analysis relative to control
Chain of Ribosomal protein S6 kinase alpha-4 (Homo sapiens) (O75676 whole entry, looked up): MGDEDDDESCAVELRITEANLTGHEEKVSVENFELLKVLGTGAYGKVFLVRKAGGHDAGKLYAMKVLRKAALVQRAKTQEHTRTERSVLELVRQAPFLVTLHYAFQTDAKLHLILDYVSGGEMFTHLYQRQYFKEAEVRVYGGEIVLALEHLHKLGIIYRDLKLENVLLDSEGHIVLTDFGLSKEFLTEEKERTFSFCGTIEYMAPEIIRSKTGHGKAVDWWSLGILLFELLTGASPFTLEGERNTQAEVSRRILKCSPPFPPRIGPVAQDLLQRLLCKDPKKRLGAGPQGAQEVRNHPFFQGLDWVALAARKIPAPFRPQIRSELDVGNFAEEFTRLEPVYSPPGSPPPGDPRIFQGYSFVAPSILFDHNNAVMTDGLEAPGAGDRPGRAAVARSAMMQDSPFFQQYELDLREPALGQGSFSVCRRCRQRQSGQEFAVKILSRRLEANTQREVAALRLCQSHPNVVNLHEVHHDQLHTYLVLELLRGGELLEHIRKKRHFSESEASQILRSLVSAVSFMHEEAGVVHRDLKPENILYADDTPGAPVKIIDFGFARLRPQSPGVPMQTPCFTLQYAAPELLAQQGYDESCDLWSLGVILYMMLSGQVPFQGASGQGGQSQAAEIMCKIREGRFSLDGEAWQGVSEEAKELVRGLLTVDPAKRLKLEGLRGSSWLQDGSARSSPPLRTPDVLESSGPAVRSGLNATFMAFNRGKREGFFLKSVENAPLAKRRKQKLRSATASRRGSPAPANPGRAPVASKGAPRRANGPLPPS

[26] = molecular target: Tyrosine-protein kinase receptor TYRO3 (Homo sapiens) (UniProt Q06418); assay: Inhibition of RSE (unknown origin) at 1 uM relative to control
[27] = molecular target: Serine/threonine-protein kinase PAK 2 (Homo sapiens) (UniProt Q13177); assay: Inhibition of human partial length wild type PAK2 (P151/R525) expressed in bacterial system at 1 uM by KINOMEscan analysis relative to control
Chain of Serine/threonine-protein kinase PAK 2 (Homo sapiens) (Q13177 whole entry): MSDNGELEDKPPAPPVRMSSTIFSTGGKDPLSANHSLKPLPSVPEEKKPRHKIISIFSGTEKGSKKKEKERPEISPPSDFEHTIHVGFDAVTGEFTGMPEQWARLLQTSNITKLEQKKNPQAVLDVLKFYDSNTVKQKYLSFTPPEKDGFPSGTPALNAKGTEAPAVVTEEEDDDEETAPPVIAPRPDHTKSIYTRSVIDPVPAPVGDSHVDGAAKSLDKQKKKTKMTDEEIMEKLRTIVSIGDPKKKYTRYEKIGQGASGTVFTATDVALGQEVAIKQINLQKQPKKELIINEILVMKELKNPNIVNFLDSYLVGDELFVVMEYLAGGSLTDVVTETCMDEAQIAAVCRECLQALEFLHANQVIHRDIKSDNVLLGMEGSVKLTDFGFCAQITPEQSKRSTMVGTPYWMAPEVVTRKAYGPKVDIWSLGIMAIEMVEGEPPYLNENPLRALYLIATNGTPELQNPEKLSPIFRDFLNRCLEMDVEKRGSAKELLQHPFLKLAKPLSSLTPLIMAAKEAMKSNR

Mus musculus [28] = assay: Reduction in AMPD3 protein expression in kidney-specific Pkd1 knockout ADPKD mouse model assessed as protein expression in kidney at 5 mg/kg by Western blot analysis; format: functional, organism-based
[29] = molecular target: Casein kinase II subunit alpha' (Homo sapiens) (UniProt P19784); assay: Inhibition of human full length wild type CK2alpha2 expressed in mammalian system at 1 uM by KINOMEscan analysis relative to control
Chain of Casein kinase II subunit alpha' (Homo sapiens) (P19784 whole entry, looked up): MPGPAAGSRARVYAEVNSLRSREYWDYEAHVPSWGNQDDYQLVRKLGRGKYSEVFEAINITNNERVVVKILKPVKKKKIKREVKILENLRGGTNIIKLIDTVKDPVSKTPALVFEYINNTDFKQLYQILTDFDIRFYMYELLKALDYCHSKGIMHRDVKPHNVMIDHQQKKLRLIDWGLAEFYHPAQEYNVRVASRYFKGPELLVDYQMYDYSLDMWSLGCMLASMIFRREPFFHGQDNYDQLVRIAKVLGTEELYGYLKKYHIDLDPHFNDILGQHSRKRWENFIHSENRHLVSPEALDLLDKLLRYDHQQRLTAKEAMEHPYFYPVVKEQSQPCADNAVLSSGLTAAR

[30] = molecular target: MAP kinase-activated protein kinase 5 (Homo sapiens) (UniProt Q8IW41); assay: Inhibition of human partial length wild type PRAK (M1/D322) expressed in mammalian system at 1 uM by KINOMEscan analysis relative to control
[31] = molecular target: Cyclin-dependent kinase 3 (Homo sapiens, UniProt Q00526); assay: Inhibition of CDK3 (unknown origin)
[32] = Tmax in ICR mouse at 5 mg/kg, sc single dose measured upto 24 hrs; format: ADME, organism-based; conditions: in vivo
[33] = molecular target: Serine/threonine-protein kinase Chk1 (Homo sapiens) (UniProt O14757); assay: Inhibition of human partial length wild type CHK1 expressed in bacterial system at 1 uM by KINOMEscan analysis relative to control
MDCK = assay: Inhibition of cyst formation in in-vitro MDCK cyst model assessed as decrease in cyst diameter at 1 to 3 uM measured for 4 to […]; format: functional, cell-based; conditions: Canis lupus familiaris, dose 1-3 µM, time lower 4.0 hrs
[34] = molecular target: Ephrin type-A receptor 5 (Homo sapiens) (UniProt P54756); assay: Inhibition of human partial length wild type EphA5 (T627/V930) expressed in bacterial system at 1 uM by KINOMEscan analysis relative to control
Chain of Ephrin type-A receptor 5 (Homo sapiens) (P54756 whole entry): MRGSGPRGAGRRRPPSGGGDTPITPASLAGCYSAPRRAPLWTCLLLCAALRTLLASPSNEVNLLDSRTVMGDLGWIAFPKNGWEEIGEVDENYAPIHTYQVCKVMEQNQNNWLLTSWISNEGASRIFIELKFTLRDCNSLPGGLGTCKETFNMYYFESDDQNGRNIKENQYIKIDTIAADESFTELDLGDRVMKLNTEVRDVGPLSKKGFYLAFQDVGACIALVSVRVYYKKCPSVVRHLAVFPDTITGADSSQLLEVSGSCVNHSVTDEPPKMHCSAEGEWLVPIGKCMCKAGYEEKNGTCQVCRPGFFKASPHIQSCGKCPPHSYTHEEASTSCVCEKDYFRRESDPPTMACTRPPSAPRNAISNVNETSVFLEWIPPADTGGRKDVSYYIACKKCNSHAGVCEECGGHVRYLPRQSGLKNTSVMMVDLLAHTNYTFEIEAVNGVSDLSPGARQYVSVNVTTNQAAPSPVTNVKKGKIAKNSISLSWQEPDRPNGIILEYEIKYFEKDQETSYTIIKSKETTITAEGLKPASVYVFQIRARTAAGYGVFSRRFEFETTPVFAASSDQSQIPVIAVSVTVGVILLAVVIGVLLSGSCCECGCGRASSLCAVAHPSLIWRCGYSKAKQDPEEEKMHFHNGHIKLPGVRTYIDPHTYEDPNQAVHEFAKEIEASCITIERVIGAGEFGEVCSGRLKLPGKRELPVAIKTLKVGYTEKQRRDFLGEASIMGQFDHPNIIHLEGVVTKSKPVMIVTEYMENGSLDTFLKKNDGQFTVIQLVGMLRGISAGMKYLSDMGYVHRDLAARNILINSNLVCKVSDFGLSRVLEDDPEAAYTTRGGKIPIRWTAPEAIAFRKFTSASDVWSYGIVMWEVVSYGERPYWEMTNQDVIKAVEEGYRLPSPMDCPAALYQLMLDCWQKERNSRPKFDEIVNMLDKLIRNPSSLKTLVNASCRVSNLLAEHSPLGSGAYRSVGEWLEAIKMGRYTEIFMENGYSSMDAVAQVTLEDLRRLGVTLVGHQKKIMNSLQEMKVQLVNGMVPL

[35] = molecular target: Serine/threonine-protein kinase mTOR (Homo sapiens) (UniProt P42345); assay: Inhibition of human partial length wild type mTOR (L1382/W2549) expressed in mammalian system at 1 uM by KINOMEscan analysis relative to control

Work on `C=CC(=O)Nc1ccc(C(=O)Nc2n[nH]c3ccc(-c4cncc(NC[C@@H](O)c5ccccc5)c4)cc23)cc1` yielded a half-life [1] of 3 h, an inhibition [2] of 66% and an inhibition [3] of less than 50%. It also gave an MRT inf [4] of 10 h, an IC50 [5] of 3.37 µM and an inhibition [6] of less than 50%. The inhibition [7] was 79%, the inhibition [8] was less than 50% and the inhibition [9] was less than 50%. The AUC(0-inf) [10] was 17400 ng·h/mL, the Cmax [11] was 3810 ng/mL and the inhibition [12] was less than 50%. The Activity (Mus musculus [13]) was “Active”, the inhibition [14] was less than 50% and the Activity (Mus musculus [15]) was “Active”. For the same compound, the MRT inf [16] was 5 h, the fraction unbound at 4 h [17] was less than 0.01 and the Activity [18] was “Non-Toxic”. The inhibition [19] was less than 50%, the AUC(0-t) at 24 h [20] was 26900 ng·h/mL and the inhibition [21] was less than 50%. It also gave an inhibition [22] of less than 50%, an IC50 [23] greater than 10 µM and an inhibition [24] of less than 50%. It also gave an inhibition [25] of less than 50%, an inhibition [26] of less than 50% and an inhibition [27] of less than 50%. The inhibition (Mus musculus [28]) was “Active”, the inhibition [29] was less than 50% and the inhibition [30] was less than 50%. It also gave an IC50 [31] of 1.84 µM, a Tmax [32] of 1 h and an inhibition [33] of less than 50%. For the same compound, the inhibition (MDCK) was “Dose-Dependent Effect”, the inhibition [34] was less than 50% and the inhibition [35] was less than 50%.
